Data on eight compounds can be found in article PMC6337485, “Olive Biophenols Reduces Alzheimer’s Pathology in SH-SY5Y Cells and APPswe Mice” (International Journal of Molecular Sciences, 2018).

Like-named read-outs stand apart in the source and are kept apart here.

In series [1] the test system is SH-SY5Y cells. On the set-up: method as in PMID 29109370. Particulars: cited from earlier work.
For series [2], the target named is T1, Aβ42 fibrils (Homo sapiens, UniProt P05067). Put plainly: Thioflavin-T (ThT) fluorometric assay, Aβ42 fibril inhibition. In kind it is biochemical. Particulars: for Thioflavin-T Assay % Inhibition: highest concentration, 1000 µM standard.
T1 sequence (P05067 672-713 limits assumed): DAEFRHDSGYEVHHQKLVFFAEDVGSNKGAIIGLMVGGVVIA
In series [3] the test system is SH-SY5Y cells. The conditions noted are these: human, 1000 µM.
For series [4], the system named is SH-SY5Y cells. The conditions noted are these: human, 1000 µM. This is another data set of the same source.
Series [5] concerns the target T1, Aβ42 fibrils. The experiment in a line: Congo red binding assay, Aβ42 fibril inhibition. In kind it is biochemical. The conditions noted are these: for Congo-Red Assay % Inhibition: highest concentration, 1000 µM standard.
The subject of a further series is BACE-1 enzyme. On the set-up: method as in PMID 29772299. Particulars: among olive biophenols; cited from earlier work.
Series [6] relates to SH-SY5Y cells.
The subject of series [7] is SH-SY5Y cells. This is another data set of the same source.
Series [8] deals with SH-SY5Y cells. Put plainly: Aβ42 induced SH-SY5Y cells toxicity and olive biophenols treatment (MTT viability). The conditions noted are these: 1000 µM standard, 24 h pre-incubation, then 25 µM Aβ42 for 24 h.
The target of series [9] is T1, Aβ42 fibrils. The experiment in a line: Transmission electron microscope (TEM) imaging of Aβ42 fibrils with olive biophenols. In kind it is biochemical. The conditions noted are these: biophenol ≥200 µM, 20 µM Aβ42 fibrils, 24 h, 37 °C. Here is the method: Ten µL aliquot of each sample was spotted onto a glow-discharged, carbon-coated formvar grid and incubated for 30 min. The droplet then was displaced with an equal volume of 2.5% glutaraldehyde (v/v) and incubated for an additional 5 min. Finally, the grid was stained with 10 μL of 3% 0.22 µm filtered uranyl acetate (v/v) twice, and the solution was gently wicked off using Whatman’s grade-1 qualitative filter paper and the grid was then air-dried. Samples were examined by using a Hitachi H7100FA TEM (Hitachi, Japan) at the Centre for Advanced Microscopy, Australian National University, Canberra. All the images were captured at a voltage of 125 kV and an instrumental magnification of 2000×.

[10] abbreviates: 1000 µM standard, 24 h pre-incubation, then 25 µM Aβ42 and 200 µM copper for 24 h.
Where [11] appears, read: standard biophenols 10–1000 µM, pre-formed Aβ42 fibril, 2 h, room temperature.
The mark [12] stands for this setting: 1000 µM standard, 24 h pre-incubation, then 25 µM Aβ42 and 200 µM L-DOPA for 24 h.

The term IC50 denotes the concentration that gives 50% inhibition.

Take `C[C@@H]1O[C@@H](O[C@@H]2[C@@H](O)[C@H](OCCc3ccc(O)c(O)c3)O[C@H](CO)[C@H]2OC(=O)/C=C/c2ccc(O)c(O)c2)[C@H](O)[C@H](O)[C@H]1O` [Verbascoside (VB), Verbascoside]: the “Protection of SH-SY5Y cells against Cu-induced toxicity” value with SH-SY5Y cells [1] was “rescue SH-SY5Y cells”. Also, the 50% inhibitory concentration (IC50) on Aβ42 fibrils [2] turned out to be 22.6 µM; on Aβ42 fibrils [5] (read-out: Congo-Red Assay IC50), 59.6 µM. Further, on Aβ42 fibrils [2], the “Thioflavin-T Assay % Inhibition” value is recorded as 61 ± 0.35%. Further, the “Aβ-SH-SY5Y Toxicity % Viability” value with SH-SY5Y cells [3] is listed as 66 ± 1.11%. Also, the “Aβ-Cu-SH-SY5Y Toxicity % Viability” value in the series with SH-SY5Y cells [4] was found to be 70 ± 0.48%. The “Congo-Red Assay % Inhibition” value on Aβ42 fibrils [5] is 57 ± 0.51%. Besides, the BACE-1 enzyme inhibition entry with BACE-1 enzyme is reported as “strongest inhibitor”. Besides, in the series on SH-SY5Y cells [6] (human, 1000 µM), the “Aβ-L-DOPA-SH-SY5Y Toxicity % Viability” value is recorded as 69 ± 0.66%.

On to `OCCc1ccc(O)c(O)c1` [Hydroxytyrosol (HT), Hydroxytyrosol], for which the “Aβ-Cu-SH-SY5Y Toxicity % Viability” value in the series on SH-SY5Y cells [7] (setting [10]) is given as 60 ± 0.84%. In addition, the “Thioflavin-T Assay % Inhibition” value on Aβ42 fibrils [2] is given as 45 ± 0.47%. In addition, the “Thioflavin-T Assay IC50” value at Aβ42 fibrils [2] (setting [11]) was “unable to achieve IC50 value”. Further, the “Aβ-SH-SY5Y Toxicity % Viability” value with SH-SY5Y cells [8] is on record as 60 ± 1.00%. The “Congo-Red Assay % Inhibition” value at Aβ42 fibrils [5] worked out at 50 ± 0.4%. Moreover, the IC50 at Aβ42 fibrils [5] (read-out: Congo-Red Assay IC50) was found to be 97.8 µM. Besides, in the series with SH-SY5Y cells [6] (setting [12]), the “Aβ-L-DOPA-SH-SY5Y Toxicity % Viability” value stood at 64 ± 1.02%.

For `O=C(O)/C=C/c1ccc(O)c(O)c1` [Caffeic acid (CA), Caffeic acid], the “Aβ-Cu-SH-SY5Y Toxicity % Viability” value with SH-SY5Y cells [7] (setting [10]) worked out at 62 ± 0.93%. For the same compound, the “Thioflavin-T Assay IC50” value on Aβ42 fibrils [2] (setting [11]) was “unable to achieve IC50 value”. Also, in the series on SH-SY5Y cells [8], the “Aβ-SH-SY5Y Toxicity % Viability” value is 62 ± 0.53%. At Aβ42 fibrils [5] (setting [11]), the “Congo-Red Assay IC50” value is “unable to achieve IC50 value”. The “Aβ-L-DOPA-SH-SY5Y Toxicity % Viability” value in the series on SH-SY5Y cells [6] (setting [12]) is 67 ± 0.43%.

On to `CC(Cc1ccc(O)c(O)c1)C(C)Cc1ccc(O)c(O)c1` (stereo not shown) [Nordihroguaretic acid (NDGA), Nordihydroguaiaretic acid, reference compound], for which, on Aβ42 fibrils [2], the “Thioflavin-T Assay % Inhibition” value was found to be 70 ± 0.5%. In addition, the IC50 on Aβ42 fibrils [2] (setting [11]) came to 15.4 µM; at Aβ42 fibrils [5] (standard biophenols 10–1000 µM, pre-formed Aβ42 fibril, 2 h, room temperature, read-out: Congo-Red Assay IC50), 14.4 µM. The “Congo-Red Assay % Inhibition” value at Aβ42 fibrils [5] is 69 ± 0.4%.

`O=c1cc(-c2ccc(O)c(O)c2)oc2cc(O)cc(O)c12` [Luteolin (LU), Luteolin]: the “Aβ-Cu-SH-SY5Y Toxicity % Viability” value with SH-SY5Y cells [7] (setting [10]) is recorded as 67 ± 0.52%. Besides, on Aβ42 fibrils [2], the IC50 was 36.9 µM and the “Thioflavin-T Assay % Inhibition” value is given as 64 ± 0.4%. Further, the “Aβ-SH-SY5Y Toxicity % Viability” value in the series on SH-SY5Y cells [8] amounted to 65 ± 0.39%. In addition, the “Congo-Red Assay % Inhibition” value at Aβ42 fibrils [5] is given as 61 ± 0.33%. For the same compound, at Aβ42 fibrils [5] (read-out: Congo-Red Assay IC50), the 50% inhibitory concentration (IC50) came out at 46.3 µM. In the series on SH-SY5Y cells [6] (setting [12]), the “Aβ-L-DOPA-SH-SY5Y Toxicity % Viability” value worked out at 69 ± 0.87%.

`O=c1c(O)c(-c2ccc(O)c(O)c2)oc2cc(O)cc(O)c12` [Quercetin (QU), Quercetin]: the “Aβ-Cu-SH-SY5Y Toxicity % Viability” value with SH-SY5Y cells [7] (human, SH-SY5Y neuroblastoma cells, 1000 µM) was found to be 60 ± 0.52%. Moreover, the “Protection of SH-SY5Y cells against Cu-induced toxicity” value with SH-SY5Y cells [1] was “rescue SH-SY5Y cells”. Moreover, on Aβ42 fibrils [2], the IC50 came to 45.9 µM and the “Thioflavin-T Assay % Inhibition” value came to 57 ± 0.34%. At Aβ42 fibrils [5], the IC50 turned out to be 73.8 µM and the “Congo-Red Assay % Inhibition” value came out at 55 ± 0.71%. Moreover, the “Effect on formed Aβ42 fibrils (TEM)” value at Aβ42 fibrils [9] is reported as “moderate reduction in fibril formation”.

Consider `C[C@@H]1O[C@@H](OC[C@H]2O[C@@H](Oc3c(-c4ccc(O)c(O)c4)oc4cc(O)cc(O)c4c3=O)[C@H](O)[C@@H](O)[C@@H]2O)[C@H](O)[C@H](O)[C@H]1O` [Rutin (RU), Rutin], for which the “Aβ-Cu-SH-SY5Y Toxicity % Viability” value in the series with SH-SY5Y cells [7] (setting [10]) is reported as 54 ± 0.71%. Moreover, the “Thioflavin-T Assay % Inhibition” value at Aβ42 fibrils [2] came to 49 ± 0.25%. In addition, the “Thioflavin-T Assay IC50” value on Aβ42 fibrils [2] (setting [11]) is listed as “unable to reach the IC50 concentration”. The “Aβ-SH-SY5Y Toxicity % Viability” value in the series on SH-SY5Y cells [8] amounted to 59 ± 0.59%. Besides, the “Congo-Red Assay % Inhibition” value at Aβ42 fibrils [5] is given as 48 ± 0.33%. Also, the “Congo-Red Assay IC50” value on Aβ42 fibrils [5] (setting [11]) was “unable to achieve IC50 value”. Besides, in the series on SH-SY5Y cells [6] (setting [12]), the “Aβ-L-DOPA-SH-SY5Y Toxicity % Viability” value amounted to 57 ± 0.85%.

As to `C/C=C1/[C@H](O[C@@H]2O[C@H](CO)[C@@H](O)[C@H](O)[C@H]2O)OC=C(C(=O)OC)[C@H]1CC(=O)OCCc1ccc(O)c(O)c1` [Oleuropein (OL), Oleuropein], the “Aβ-Cu-SH-SY5Y Toxicity % Viability” value in the series with SH-SY5Y cells [7] (setting [10]) worked out at 76 ± 1.61%. Also, at Aβ42 fibrils [2], the IC50 came out at 22.9 µM and the “Thioflavin-T Assay % Inhibition” value stood at 61 ± 0.33%. Moreover, in the series on SH-SY5Y cells [8], the “Aβ-SH-SY5Y Toxicity % Viability” value came to 68 ± 0.69%. The “Congo-Red Assay % Inhibition” value on Aβ42 fibrils [5] came out at 65 ± 0.3%. For the same compound, the 50% inhibitory concentration (IC50) on Aβ42 fibrils [5] (read-out: Congo-Red Assay IC50) was determined as 36.5 µM. The BACE-1 enzyme inhibition entry with BACE-1 enzyme is “strongest inhibitor”. Moreover, the “Effect on formed Aβ42 fibrils (TEM)” value on Aβ42 fibrils [9] is “significant reduction in both the size and number of fibrils”. Moreover, the “Aβ-L-DOPA-SH-SY5Y Toxicity % Viability” value with SH-SY5Y cells [6] (setting [12]) came out at 74 ± 0.23%.
